# Legend:
# [1] = test system: E. Coli. (50% human serum); assay: MIC, microdilution assay in presence of 50% human serum; type: cell-based; conditions: Escherichia coli, 20 h, Gram-negativ
# Method: E. coli BW25113, S. typhimurium TA100; Bacillus subtilis DSM10; and M. phlei DSM 750 and human serum
# (§1) The tests were performed using the micro dilution method.
# (§2) The determination of MIC values was performed according to the ninth edition of the Approved Standard M07-A9 (CLSI. Methods for Dilution Antimicrobial Susceptibility Tests for Bacteria That Grow Aerobically; Approved Standard-Ninth Edition. CLSI document M07-A9. Wayne, PA: Clinical and Laboratory Standards Institute; 2012.)
# (§3) The test was carried out for different bacterial strains (E. coli DSM 1116, E. coli BW25113 [gram negative], B. subtilis DSM 10 [gram positive], M. luteus DSM 1790 [gram positive], S. typhimurium TA100 [gram negative]) and M. phlei DSM 750. 20 µL of cryo stock of each strain were inoculated in 20 mL of LB media (Lysogeny broth: 10 g/L peptone, 5 g/L yeast extract, 5 g/L NaCl) followed by incubation over night at 37° C., 200 rpm. The test inoculum was adjusted by the 0.5 McFarland Standard (OD625 from 0.08 to 0.1). Within 15 min of preparation, the adjusted inoculum suspension was diluted in MHBII media (BBL TM Mueller-Hinton Broth II, Becton, Dickinson and Company, New Jersey/USA) so that each well contained approximately 5×10^5 CFU/mL in a final volume of 100 μL. 95 μL of the inoculum were applied per well and 5 μL of the (diluted) antibiotic substance were added.
# (§4) Previously the dry antibiotic compounds were dissolved in DMSO (100%) with a concentration of 2560 μg/mL and the resulting stock solutions were further diluted in DMSO (100%). […] of each antibiotic dilution were applied to the microdilution tray to reach final concentrations of 64 μg/mL to 0.008 μg/ml. One row of each well plate was left as a growth control without antibiotic substances and another row of the microdilution tray was used as sterility control (only MHB II-media). The antimicrobial effect of the solvent (DMSO) was tested by adding 5 μL DMSO to several wells without antibiotics. Purity check and cell titer control were performed according to International Standard M07-A9 on Mueller-Hinton II Agar (Mueller Hinton II Broth, 15 g/L agar-agar). Both microdilution trays and agar plates were incubated at 37° C. for 20 h and subsequently analyzed visually.
# (§5) The potency of an antibiotic is determined by the minimum inhibitory concentration (MIC). Contrary to intuition, a particularly low value is equated with a high potency.
# [2] = test system: B. subtilis DSM 10; assay: MIC, microdilution assay (CLSI M07-A9); type: cell-based; conditions: Bacillus subtilis, DSM10, Gram-positiv, MHBII media, 37° C., 20 h, tested 64 to 0.008 μg/mL
# Method: as §1, §2, §3, §4, §5
# [3] = test system: E. coli BW25113; assay: MIC, microdilution assay (CLSI M07-A9); type: cell-based; conditions: Escherichia coli, Gram-negativ, MHBII media, 37° C., 20 h, tested 64 to 0.008 μg/mL
# Method: as §1, §2, §3, §4, §5
# [4] = test system: M. luteus DSM 1790; assay: MIC, microdilution assay (CLSI M07-A9); type: cell-based; conditions: Micrococcus luteus, DSM1790, Gram-positiv, MHBII media, 37° C., 20 h, tested 64 to 0.008 μg/mL
# Method: as §1, §2, §3, §4, §5
# [5] = test system: M. phlei DSM 750; assay: MIC, microdilution assay (CLSI M07-A9); type: cell-based; conditions: Mycolicibacterium phlei, DSM750, MHBII media, 37° C., 20 h, tested 64 to 0.008 μg/mL
# Method: as §1, §2, §3, §4, §5
# [6] = test system: S. typhimurium TA100; assay: MIC, microdilution assay (CLSI M07-A9); type: cell-based; conditions: Salmonella enterica, Gram-negativ, MHBII media, 37° C., 20 h, tested 64 to 0.008 μg/mL, read-out: MIC S. Typhimirium
# Method: as §1, §2, §3, §4, §5
# [7] = test system: Pantoea dispersa; conditions: humans infected with the pathogen; background statement; cited from earlier work
# [8] = test system: selected strains; assay: Antibacterial activity against selected strains, overall comparison with lead structure (Table 1); type: cell-based; conditions: D-variations in Table 1
# Method: as §1, §2
# The test was carried out for different bacterial strains (E. coli DSM 1116, E. coli BW25113 [gram negative], B. subtilis DSM 10 [gram positive], M. luteus DSM 1790 [gram positive], S. typhimurium TA100 [gram negative]) and M. phlei DSM 750. 20 µL of cryo stock of each strain were inoculated in 20 mL of LB media (Lysogeny broth: 10 g/L peptone, 5 g/L yeast extract, 5 g/L NaCl) followed by incubation over night at 37° C., 200 rpm. The test inoculum was adjusted by the 0.5 McFarland Standard (OD625 from 0.08 to 0.1). […]
# Previously the dry antibiotic compounds were dissolved in DMSO (100%) with a concentration of 2560 μg/mL and the resulting stock solutions were further diluted in DMSO (100%). […] Both microdilution trays and agar plates were incubated at 37° C. for 20 h and subsequently analyzed visually.
# The potency of an antibiotic is determined by the minimum inhibitory concentration (MIC). […]
Compound,MIC [1],MIC [2],MIC [3],MIC [4],MIC [5],MIC [6],Treatment outcome of Pantoea dispersa infection [7],Activity compared with the lead structure (0) [8]
"COc1c(NC(=O)c2ccc(NC(=O)c3ccc(NC(=O)[C@H](Cc4c[nH]nn4)NC(=O)c4ccc(NC(=O)/C(C)=C/c5ccc(O)cc5)cc4)cn3)c(OC)c2O)ccc(C(=O)O)c1O [Compound 0, reference compound]",0.5 µg/mL,0.031 µg/mL,≤ 0.016 µg/mL,0.031 µg/mL,0.125 µg/mL,≤ 0.016 µg/mL,–,–
CN(C)c1cc(NC(=O)CNC(C)(C)C)c(O)c2c1C[C@H]1C[C@H]3[C@H](N(C)C)C(O)=C(C(N)=O)C(=O)[C@@]3(O)C(O)=C1C2=O [tigecycline],–,–,–,–,–,–,successful,–
COc1c(NC(=O)c2ccc(NC(=O)c3c(F)cc(NC(=O)[C@H](Cc4c[nH]nn4)NC(=O)c4ccc(NC(=O)/C(C)=C/c5ccc(O)cc5)cc4)cc3F)c(OC)c2O)ccc(C(=O)O)c1O [Compound 2],0.5 µg/mL,0.125 µg/mL,≤ 0.016 µg/mL,0.25 µg/mL,1 µg/mL,≤ 0.016 µg/mL,–,about as active as the lead structure (0)
O=C(O)[C@H]1/C(=C/CO)O[C@@H]2CC(=O)N21 [Clavulanic acid],–,–,–,–,–,–,ineffective,–
COc1c(NC(=O)c2ccc(NC(=O)c3ccc(NC(=O)[C@H](Cc4c[nH]nn4)NC(=O)c4ccc(NC(=O)/C(C)=C/c5ccc(O)cc5)cc4)cc3C(F)(F)F)c(OC)c2O)ccc(C(=O)O)c1O [Compound 5],≥ 8 µg/mL,4 µg/mL,0.125 µg/mL,4 µg/mL,8 µg/mL,0.031 µg/mL,–,–
COc1c(NC(=O)c2ccc(NC(=O)c3ccc(NC(=O)[C@H](Cc4c[nH]nn4)NC(=O)c4ccc(NC(=O)/C(C)=C/c5ccc(O)cc5)cc4)cc3Br)c(OC)c2O)ccc(C(=O)O)c1O [Compound 6],1 µg/mL,0.125 µg/mL,0.016 µg/mL,0.5 µg/mL,1 µg/mL,0.016 µg/mL,–,–
COc1c(NC(=O)c2ccc(NC(=O)c3ccc(NC(=O)[C@H](Cc4c[nH]nn4)NC(=O)c4ccc(NC(=O)/C(C)=C/c5ccc(O)cc5)cc4)cc3F)c(OC)c2O)ccc(C(=O)O)c1O [Compound 1],1 µg/mL,0.125 µg/mL,0.016 µg/mL,0.031 µg/mL,1 µg/mL,≤ 0.016 µg/mL,–,–
colistin,–,–,–,–,–,–,successful,–
COc1c(NC(=O)c2ccc(NC(=O)c3ccc(NC(=O)[C@H](Cc4c[nH]nn4)NC(=O)c4ccc(NC(=O)/C(C)=C/c5ccc(O)cc5)cc4)cc3I)c(OC)c2O)ccc(C(=O)O)c1O [Compound 8],≥ 8 µg/mL,0.5 µg/mL,0.063 µg/mL,4 µg/mL,4 µg/mL,0.031 µg/mL,–,–
COc1c(NC(=O)c2ccc(NC(=O)c3ccc(NC(=O)[C@H](Cc4c[nH]nn4)NC(=O)c4ccc(NC(=O)/C(C)=C/c5ccc(O)cc5)cc4)cc3Cl)c(OC)c2O)ccc(C(=O)O)c1O [Compound 3],0.5 µg/mL,0.063 µg/mL,≤ 0.016 µg/mL,–,0.5 µg/mL,≤ 0.016 µg/mL,–,about as active as the lead structure (0)
